Data taken from patent publication US20220267734A1, “HETEROGENEOUS STEM CELL POPULATION, PREPARATION METHOD THEREFOR AND USE THEREOF” (INSTITUTE OF BASIC MEDICAL SCIENCES, CHINESE ACADEMY OF …, priority 2019, published 2022).

What was measured:
[1] = test system: human brain pericytes (HBPs); assay: q-PCR gene expression in human brain pericytes under IL-1β with or without DAPT or PDTC; format: cell-based; conditions: for gene expression of TIMP-1: among control, IL-1β and IL-1β+inhibitor groups
Description: We added interleukin 1β (IL-1β) to Transwell in vitro blood-brain barrier model, and cultured human brain microvascular endothelial cells (HBMVECs), human brain pericytes (HBPs) and human brain astrocytes (HBAs) in vitro. We verified HBMVECs, HBPs and HBAs by immunofluorescence staining. Among them, HBMVEC was stained with the antibody against vWF; HBP was stained with the antibodies against α-SMA and NG2, and vWF and GFAP antibodies; and HBA was stained with GFAP antibody (FIG. 8B). […] HBPs were treated with IL-1β for 30 minutes followed by DAPT treatment for 24 hours, and were subjected to q-PCR quantification. It could be seen from FIG. 8E that, compared with the control group, the gene expression of NOTCH3 in the IL-1β group was increased; compared with the IL-1β group, the gene expression of NOTCH3 in the IL-1β+DAPT group was reduced.

[2] = test system: subpluripotent stem cells; assay: IRISIN-induced differentiation into beige adipocytes (UCP1 marker); format: cell-based; conditions: marker protein UCP1 by real-time fluorescence quantification and western blotting, P<0.05
Description: In recent years, a new hormone IRISIN has been discovered, which is a muscle factor secreted after exercise. It is released from the cleavage of its precursor—fibronectin III domain containing 5 (Fndc5), and is involved in the function of the muscles, the cardiovascular system, the nerves and energy metabolism. In the process of energy regulation, IRISIN is a potential regulator in sugar metabolism. In this study, we used the heterogeneous stem cell population of the present invention as seed cells, and used IRISIN to induce them to differentiate into beige adipocytes (see FIG. 9).
The adipose tissue was washed twice with D-Hanks' solution containing dual antibiotics (penicillin, streptomycin), and centrifuged at 800 rpm for 3 min. The lower layer of the liquid after washing was removed with a pipette and the adipose tissue was transferred to a new centrifugation tube of 50 ml. 0.2% collagenase P was added for digestion. The tube was incubated in a shaker at a constant temperature of 37° C. for 30 min. An appropriate amount of D-Hanks' solution was added to the digested adipose tissue, which was then filtered with a […] cell sieve to remove undigested tissue. The mixture was centrifuged at 1500 rpm for 10 min. The upper layer of grease was removed with a pipette, then the supernatant was discarded and the cell pellet was re-suspended in D-Hanks' solution and washed once. […]

[3] = IL-1β 30 minutes then inhibitor 24 hours, compared with the IL-1β group
[4] = IL-1β group compared with the control group

## C[C@H](NC(=O)Cc1cc(F)cc(F)c1)C(=O)N[C@H](C(=O)OC(C)(C)C)c1ccccc1 [DAPT]
[1]; [3]
  gene expression of MMP-9: significantly lower
  gene expression of NF-κB p65: significantly reduced
  gene expression of NOTCH3: reduced
[1]
  gene expression of TIMP-1: did not change much

## N.S=C(S)N1CCCC1 [PDTC]
[1]; [3]
  gene expression of NOTCH3: did not change much
[1]
  gene expression of TIMP-1: did not change significantly

## IL-1β: interleukin 1β added to Transwell in vitro blood-brain barrier model
[1]; [4]
  gene expression of MMP-9: significantly increased
  gene expression of NF-κB p65: significantly increased
  gene expression of NOTCH3: increased

B1: IRISIN: muscle factor secreted after exercise, released by cleavage of Fndc5 (protein, UniProt Q8NAU1 1-191, looked up)
Irisin: MQAARGGAGRPERPGRPGRGPERERERPPGAGAASPCAAPGLPAGGATIHPGSPSAWPPRARAALRLWLGCVCFALVQADSPSAPVNVTVRHLKANSAVVSWDVLEDEVVIGFAISQQKKDVRMLRFIQEVNTTTRSCALWDLEEDTEYIVHVQAISIQGQSPASEPVLFKTPREAEKMASKNKDEVTMKE
modifications: Irisin
notes: muscle factor secreted after exercise, released by cleavage of Fndc5
[2]
  differentiation into beige adipocytes: induces the differentiation
